Holding throughout (type): cell-based
Series [1] has as its system Subgenomic HCV RNA replicon cells (LucNeo#2) having a luciferase gene. The series is described as follows: Anti-HCV activity using replicon cells (luciferase assay). As to conditions: luciferase assay; for pEC50: LucNeo#2 subgenomic replicon cells, 3 days, read-out: EC50; for anti-HCV activity (in words): Table 2, FIGS. 13 to 15. Here is the method: Subgenomic HCV RNA replicon cells (LucNeo#2, Goto et al., Biochem. Biophys. Res. Commun., 2006, vol. 343, pp. 879-884) having a luciferase gene were suspended in a Dulbecco's modified Eagle medium (DMEM) containing 10% FBS and 1 mg/ml G418 (Sigma). The cells were incubated for 24 hours and then cultured in G418-free fresh media each containing test compounds at various concentrations for 3 days. In order to perform luciferase assays, the cells were washed with PBS and treated with a lysate for 10 minutes with intermittent agitation. A cell lysate (25 μl) was transferred to a white microtiter plate. Luciferase assay reagents (100 μl, Promega, Tokyo) were added to each well and the luciferase activity was measured with a luminometer.
(§1) Based on the luciferase assay results, the HCV genomic RNA level was measured, and a percentage (%) relative to the level of RNA of a control group to which the test compound was not administered was determined. Based on the results of tetrazolium staining, cell survival rates (%) of the group to which the test compound had been administered and of a control group were determined. The dose-response relationship of the test compound was analyzed based on the results of quantitative luciferase assays to determine EC50(μM), and the dose-response relationship of the test compound was analyzed based on the results of tetrazolium staining to determine CC50.

Series [2] relates to Subgenomic HCV RNA replicon cells (LucNeo#2). In words: Cytotoxicity (cell survival rate) by tetrazolium staining in luciferase replicon cells. As to conditions: for CC50: LucNeo#2 subgenomic replicon cells. As for the experimental part: A tetrazolium staining solution (10 μl, Seikagaku Corporation, Tokyo) was added to each well in order to examine cytotoxicity (a cell survival rate). After the cells were incubated for 1 hour, the absorbance at the characteristic absorption wavelength (450 nm) was measured with the use of a microplate reader.
as §1
For orientation: A replicon is a self-replicating genome or part of one, used to study replication in cells.

The subject of series [3] is #50-1 (subgenomic replion) cells. The series is described as follows: Anti-HCV activity using subgenomic replicon cells (HCV genomic RNA, real-time RT-PCR). Particulars: concentration of 10 μM, relative to control group without test compound. As for the experimental part:
The 70% confluent #50-1 (subgenomic replion) cells or NNC #2 (full-length replicon) cells (Ishii et al., J. Virol., 2006, vol. 80, pp. 4510-4520) were dispersed in a culture bottle with the aid of trypsin, and the resulting dispersion was resuspended in a high-glucose Dulbecco's modified Eagle medium (DMEM) containing 10% FCS and 1 mg/ml G418 (Sigma) (see FIGS. 1 and 2). The cell suspension adjusted at 5×10^4 cells/ml with the use thereof was added to wells of a 96-well culture plate at 100 μl/well (the final cell density in each well: […]), and culture was conducted at 37° C. Supernatants of culture media were removed from wells of the plate on the following day, 200 μl each of the solutions of test compounds appropriately diluted with a G418-free culture solution were added, and culture was further continued. Samples were prepared from cells in each well 3 days later with the use of the TaqMan® Gene Expression Cell-to-CT® (Applied Biosystems). Reverse transcription was carried out in accordance with the protocols for the ABI 7500 PCR systems (Applied Biosystems) at 37° C. for 60 minutes, 95° C. for 5 minutes, and retained at 4° C. Real-time PCR was carried out in accordance with the protocols for the ABI 7500 real-time PCR systems (Applied Biosystems) at 50° C. for 2 minutes, 95° C. for 10 minutes, 40 cycles at 95° C. for 15 seconds, and 60° C. for 1 minute.
In accordance with the method mentioned above, the level of the HCV genomic RNA and, as the internal standard, the level of mRNA of glyceraldehyde-3-phosphate dehydrogenase (GAPDH) (a house keeping gene of the host cells) were assayed, and a percentage (%) relative to the level of RNA of a control group to which the test compound was not administered was determined. The dose-response relationship of the test compound was analyzed based on the measured level of the HCV genomic RNA to determine EC50, and the dose-response relationship of the test compound was analyzed based on the measured level of GAPDH RNA to determine CC50. The term “EC50” and “CC50” used herein refers to 50% effective concentration (μM) and 50% cytotoxic concentration (μM), respectively.

Experimental findings from patent US20120316342A1, “THERAPEUTIC AGENT FOR HEPATITIS C” (priority 2010, published 2012) are described below.

pEC50: −log10 of the molar value. “Also recorded” adds a separate entry of the source.

For the compound `CCCCn1c(=O)c2cc(OC)ccc2c2c(OC)c(C(OC)(C(F)(F)F)C(F)(F)F)cc(OC)c21` [KZ30, 5-butyl-2-(1′,1′,1′,3′,3′,3′-hexafluoro-2′-methoxypropan-2′-yl)-1,4,8-trimethoxy-phenanthridin-6(5H)-one], in series [1], the pEC50 (usually the negative decadic logarithm of the EC50, by convention in mol/L) is 5.04 and the “anti-HCV activity (in words)” value is “high degree of anti-HCV activity at non-cytotoxic concentrations”. Besides, the cytotoxic concentration (CC50) (commonly the concentration giving 50% cytotoxicity) in series [2] was over 100 µM.

On to `CCCCn1c(=O)c2c(OC)cccc2c2cc(C(O)(C(F)(F)F)C(F)(F)F)ccc21` [KZ31, 5-butyl-2-(1′,1′,1′,3′,3′,3′-hexafluoro-2′-hydroxypropan-2′-yl)-7-methoxy-phenanthridin-6(5H)-one], for which, in series [1], the pEC50 is 5.00. Also, in series [2], the CC50 is 12.6 µM.

Take `CCCCn1c(=O)c2cc(OC)c(OC)cc2c2cc(C(O)(C(F)(F)F)C(F)(F)F)ccc21` [KZ25, 5-butyl-2-(1′,1′,1′,3′,3′,3′-hexafluoro-2′-hydroxypropan-2′-yl)-8,9-dimethoxy-phenanthridin-6(5H)-one]: the negative-log EC50 (pEC50) in series [1] was under 5.55. Besides, the CC50 in series [2] came to 2.8 µM.

Turning to `CCCCn1c(=O)c2c(OC)c(OC)ccc2c2cc(C(O)(C(F)(F)F)C(F)(F)F)ccc21` [KZ27, 5-butyl-2-(1′,1′,1′,3′,3′,3′-hexafluoro-2′-hydroxypropan-2′-yl)-7,8-dimethoxy-phenanthridin-6(5H)-one], in series [1], the pEC50 was 5.26. The 50% cytotoxic concentration (CC50) in series [2] is 14.2 µM.

In the case of `CCCCn1c(=O)c2ccccc2c2cc(C(O)(C(F)(F)F)C(F)(F)F)c(OC)c(OC)c21` [HA-726, 5-butyl-2-(1′,1′,1′,3′,3′,3′-hexafluoro-2′-hydroxypropan-2′-yl)-3,4-dimethoxy-phenanthridin-6(5H)-one], the negative logarithm of the EC50 (pEC50) in series [1] was 5.59. For the same compound, in series [2], it took 10.4 µM to reach half-maximal cytotoxicity (CC50).

As for `CCCCn1c(=O)c2ccccc2c2c(OC)c(C(OC)(C(F)(F)F)C(F)(F)F)cc(OC)c21` [KZ29, 5-butyl-2-(1′,1′,1′,3′,3′,3′-hexafluoro-2′-methoxypropan-2′-yl)-1,4-dimethoxy-phenanthridin-6(5H)-one], the negative-log EC50 (pEC50) in series [1] is 4.52. Besides, the CC50 in series [2] was over 100 µM.

Take `CCCCn1c(=O)c2cc(OC)ccc2c2cc(C(O)(C(F)(F)F)C(F)(F)F)c3c(c21)OCO3` [HA-719, 4-butyl-11-(1′,1′,1′,3′,3′,3′-hexafluoro-2′-hydroxypropan-2′-yl)-7-methoxy-[1,3]dioxolo[4,5-c]phenanthridin-5(4H)-one]: in series [1], the pEC50 was 7.30 and the “anti-HCV activity (in words)” value was “very high; also recorded: high degree of anti-HCV activity”. Besides, the CC50 in series [2] turned out to be 6.4 µM. Also, in series [2] (Table 2), the “cytotoxicity (in words)” value was “high degree of cytotoxicity”.

In the case of `CCCCn1c(=O)c2ccccc2c2c(C(C)C)cccc21` [MN315-A, 5-butyl-1-isopropylphenanthridin-6(5H)-one], the “HCV genomic RNA level” value in series [3] stood at 46.3%.

As to `CCCCn1c(=O)c2ccccc2c2cc(C(O)(C(F)(F)F)C(F)(F)F)c3c(c21)OCO3` [HA-718, 4-butyl-1′-(1′,1′,1′,3′,3′,3′-hexafluoro-2′-hydroxypropan-2′-yl)-[1,3]dioxolo[4,5-c]phenanthridin-5(4H)-one], the negative-log EC50 (pEC50) in series [1] was 6.54. The compound also showed a CC50 in series [2] of 24.2 µM.

Take `CCCCn1c(=O)c2ccccc2c2ccc(C(C)C)cc21` [MN315-B, 5-butyl-3-isopropylphenanthridin-6(5H)-one]: in series [3], the “HCV genomic RNA level” value is listed as 14.7%.

Turning to `CCCCn1c(=O)c2cc(OC)ccc2c2cc(C(O)(C(F)(F)F)C(F)(F)F)c(OC)c(OC)c21` [HA-727, 5-butyl-2-(1′,1′,1′,3′,3′,3′-hexafluoro-2′-hydroxypropan-2′-yl)-3,4,8-trimethoxy-phenanthridin-6(5H)-one], in series [1], the pEC50 is 5.74. In addition, in series [2], the half-maximal cytotoxic concentration (CC50) worked out at 6.8 µM.

As for `CCCCn1c(=O)c2c(OC)c(OC)c(OC)cc2c2cc(C(O)(C(F)(F)F)C(F)(F)F)ccc21` [KZ39, 5-butyl-2-(1′,1′,1′,3′,3′,3′-hexafluoro-2′-hydroxypropan-2′-yl)-7,8,9-trimethoxy-phenanthridin-6(5H)-one], the negative-log EC50 (pEC50) in series [1] was under 5.70. In series [2], this compound displayed a CC50 of 2 µM.

Regarding `CCCCn1c(=O)c2ccccc2c2cc(C(OCc3ccccc3)(C(F)(F)F)C(F)(F)F)c(OC)cc21` [KZ37, 2-(2′-benzyloxy-1′,1′,1′,3′,3′,3′-hexafluoropropan-2′-yl)-5-butyl-3-methoxy-phenanthridin-6(5H)-one], in series [1], the negative-log EC50 (pEC50) is 5.59 and the “anti-HCV activity (in words)” value is listed as “high degree of anti-HCV activity at non-cytotoxic concentrations; also recorded: high degree of anti-HCV activity”. For the same compound, in series [2], the CC50 was over 100 µM.

For the compound `CCCCn1c(=O)c2ccccc2c2cc(C(O)(C(F)(F)F)C(F)(F)F)c(OC)cc21` [KZ36, 5-butyl-2-(1′,1′,1′,3′,3′,3′-hexafluoro-2-hydroxypropan-2′-yl)-3-methoxy-phenanthridin-6(5H)-one], the negative logarithm of the EC50 (pEC50) in series [1] is 5.66. In series [2], this compound gave a CC50 of 5.7 µM.

Regarding `CCCCn1c(=O)c2ccc(OC)cc2c2cc(C(O)(C(F)(F)F)C(F)(F)F)ccc21` [KZ32, 5-butyl-2-(1′,1′,1′,3′,3′,3′-hexafluoro-2′-hydroxypropan-2′-yl)-9-methoxy-phenanthridin-6(5H)-one], the pEC50 in series [1] is 4.78. This compound showed a half-maximal cytotoxic concentration (CC50) in series [2] of 28.9 µM.

On to `CCCCn1c(=O)c2cc(OC)c(OC)c(OC)c2c2cc(C(O)(C(F)(F)F)C(F)(F)F)ccc21` [KZ28, 5-butyl-2-(1′,1′,1′,3′,3′,3′-hexafluoro-2′-hydroxypropan-2′-yl)-8,9,10-trimethoxy-phenanthridin-6(5H)-one], for which the negative logarithm of the EC50 (pEC50) in series [1] was 5.08. The CC50 in series [2] amounted to 9.4 µM.

As to `CCCCn1c(=O)c2cccc(OC)c2c2cc(C(O)(C(F)(F)F)C(F)(F)F)ccc21` [KZ33, 5-butyl-2-(1′,1′,1′,3′,3′,3′-hexafluoro-2′-hydroxypropan-2′-yl)-10-methoxy-phenanthridin-6(5H)-one], the negative-log EC50 (pEC50) in series [1] is 5.30. Also, half-maximal cytotoxicity in series [2] (CC50) was put at 6.9 µM.

Take `CCCCn1c(=O)c2cc(OC)ccc2c2cc(C(OCc3ccccc3)(C(F)(F)F)C(F)(F)F)c3c(c21)OCO3` [HA-758, 11-(2′-benzyloxy-1′,1′,1′,3′,3′,3′-hexafluoropropan-2′-yl)-4-butyl-7-methoxy-[1,3]-dioxolo[4,5-c]phenanthridin-5(4H)-one]: in series [1], the pEC50 is 5.77 and the “anti-HCV activity (in words)” value is “high degree of anti-HCV activity at non-cytotoxic concentrations; also recorded: high degree of anti-HCV activity”. In addition, in series [2], the CC50 was over 100 µM.

As to `CCCCn1c(=O)c2cc3c(cc2c2cc(C(O)(C(F)(F)F)C(F)(F)F)ccc21)OCO3` [KZ26, 5-butyl-2-(1′,1′,1′,3′,3′,3′-hexafluoro-2′-hydroxypropan-2′-yl)-[1,3]dioxolo[4,5-j]phenanthridin-6(5H)-one], in series [1], the negative logarithm of the EC50 (pEC50) was 5.64 and the “anti-HCV activity (in words)” value is recorded as “high degree of anti-HCV activity at non-cytotoxic concentrations”. This compound also yielded a half-maximal cytotoxic concentration (CC50) in series [2] of over 100 µM.

For `CCCCn1c(=O)c2c(OC)cc(OC)cc2c2cc(C(O)(C(F)(F)F)C(F)(F)F)ccc21` [KZ38, 5-butyl-2-(1′,1′,1′,3′,3′,3′-hexafluoro-2′-hydroxypropan-2′-yl)-7,9-dimethoxy-phenanthridin-6(5H)-one], in series [1], the negative-log EC50 (pEC50) is 5.59. The CC50 in series [2] was found to be 8.2 µM.

In the case of `CCCCn1c(=O)c2ccccc2c2c(O)c(C(O)(C(F)(F)F)C(F)(F)F)ccc21` [KZ35, 5-butyl-2-(1′,1′,1′,3′,3′,3′-hexafluoro-2′-hydroxypropan-2′-yl)-1-hydroxy-phenanthridin-6(5H)-one], the negative logarithm of the EC50 (pEC50) in series [1] was 4.36. In series [2], this compound yielded a half-maximal cytotoxic concentration (CC50) of 52.3 µM.
